Reference: ChEMBL document CHEMBL1201862, “PubChem BioAssay data set” (2004)
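Growth conditions: 96-well plates. Treatment: test compound, 48 hours, 5 concentrations. Analysis: linear interpolation between bracketing concentrations; unreached endpoints set to highest concentration. The concentration for 50% growth inhibition is given as GI50.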 The source made the active and inactive calls. Rule as the data show it: active = GI50 up to about 1.1 µM and inactive = higher.

Key:
Assay in all cases: DTP human tumour cell line panel, 48 h
786-0 = test system: 786-0
A549 = test system: A549
ACHN = test system: ACHN
CAKI-1 = test system: CAKI-1
CCRF-CEM = test system: CCRF-CEM
COLO 205 = test system: COLO 205
DLD-1 = test system: DLD-1
DMS-114 = test system: DMS-114
DMS-273 = test system: DMS-273
EKVX = test system: EKVX
HCC 2998 = test system: HCC 2998
HCT-116 = test system: HCT-116
HCT-15 = test system: HCT-15
HL-60 = test system: HL-60
HOP-62 = test system: HOP-62
HOP-92 = test system: HOP-92
HT-29 = test system: HT-29
IGROV-1 = test system: IGROV-1
K562 = test system: K562
KM-20L2 = test system: KM-20L2
KM12 = test system: KM12
LOX IMVI = test system: LOX IMVI
LXFL 529 = test system: LXFL 529
M19-MEL = test system: M19-MEL
MOLT-4 = test system: MOLT-4
Malme-3M = test system: Malme-3M
NCI-H226 = test system: NCI-H226
NCI-H23 = test system: NCI-H23
NCI-H460 = test system: NCI-H460
NCI-H522 = test system: NCI-H522
OVCAR-3 = test system: OVCAR-3
OVCAR-5 = test system: OVCAR-5
OVCAR-8 = test system: OVCAR-8
RPMI-8226 = test system: RPMI-8226
RXF 393 = test system: RXF 393
RXF 631 = test system: RXF 631
SF-268 = test system: SF-268
SF-295 = test system: SF-295
SF-539 = test system: SF-539
SK-MEL-28 = test system: SK-MEL-28
SK-MEL-2 = test system: SK-MEL-2
SK-MEL-5 = test system: SK-MEL-5
SK-OV-3 = test system: SK-OV-3
SN12C = test system: SN12C
SNB-19 = test system: SNB-19
SR = test system: SR
SW-620 = test system: SW-620
TK-10 = test system: TK-10
U-251 = test system: U-251
UACC-257 = test system: UACC-257
UACC-62 = test system: UACC-62
XF498 = test system: XF498

With `C/C=C1\CN2CCc3c([nH]c4ccccc34)C2C=C1CCO` (configuration not stated) as the molecule, how does the GI50 (786-0) read?
Its GI50 is > 340 µM (inactive).

And the GI50 (A549)?
Its GI50 is > 340 µM (inactive).

What about the GI50 (ACHN) of the same molecule?
The GI50 was > 340 µM (inactive).

And the GI50 (CAKI-1)?
Its GI50 is > 340 µM (inactive).

And the GI50 (CCRF-CEM)?
Its GI50 is > 340 µM (inactive).

And the GI50 (COLO 205)?
The GI50 was > 340 µM (inactive).

And the GI50 (DLD-1)?
The GI50 was > 340 µM (inactive).

And the GI50 (DMS-114)?
Its GI50 is > 340 µM (inactive).

And the GI50 (DMS-273)?
Its GI50 is > 340 µM (inactive).

And the GI50 (EKVX)?
The GI50 was > 340 µM (inactive).

And the GI50 (HCC 2998)?
The GI50 was > 340 µM (inactive).

What about the GI50 (HCT-116) of the same molecule?
The GI50 was > 340 µM (inactive).

What about the GI50 (HCT-15) of the same molecule?
The GI50 was > 340 µM.

And the GI50 (HL-60)?
The GI50 was > 340 µM (inactive).

And the GI50 (HOP-62)?
Its GI50 is > 340 µM (inactive).

What about the GI50 (HOP-92) of the same molecule?
Its GI50 is > 340 µM (inactive).

And the GI50 (HT-29)?
The GI50 was > 340 µM (inactive).

And the GI50 (IGROV-1)?
Its GI50 is > 340 µM (inactive).

What about the GI50 (K562) of the same molecule?
The GI50 was > 340 µM (inactive).

What about the GI50 (KM-20L2) of the same molecule?
The GI50 was > 340 µM (inactive).

And the GI50 (KM12)?
The GI50 was > 340 µM (inactive).

And the GI50 (LOX IMVI)?
The GI50 was > 340 µM (inactive).

And the GI50 (LXFL 529)?
Its GI50 is > 340 µM (inactive).

What about the GI50 (M19-MEL) of the same molecule?
Its GI50 is > 340 µM (inactive).

What about the GI50 (MOLT-4) of the same molecule?
The GI50 was > 340 µM (inactive).

And the GI50 (Malme-3M)?
Its GI50 is > 340 µM (inactive).

What about the GI50 (NCI-H226) of the same molecule?
The GI50 was > 340 µM (inactive).

What about the GI50 (NCI-H23) of the same molecule?
The GI50 was > 340 µM (inactive).

And the GI50 (NCI-H460)?
Its GI50 is > 340 µM (inactive).

And the GI50 (NCI-H522)?
The GI50 was > 340 µM (inactive).

And the GI50 (OVCAR-3)?
The GI50 was 231 µM (inactive).

What about the GI50 (OVCAR-5) of the same molecule?
Its GI50 is > 340 µM (inactive).

What about the GI50 (OVCAR-8) of the same molecule?
The GI50 was > 340 µM (inactive).

And the GI50 (RPMI-8226)?
Its GI50 is > 340 µM (inactive).

What about the GI50 (RXF 393) of the same molecule?
Its GI50 is > 340 µM (inactive).

What about the GI50 (RXF 631) of the same molecule?
The GI50 was > 340 µM (inactive).

And the GI50 (SF-268)?
The GI50 was > 340 µM (inactive).

What about the GI50 (SF-295) of the same molecule?
Its GI50 is > 340 µM (inactive).

What about the GI50 (SF-539) of the same molecule?
Its GI50 is > 340 µM (inactive).

What about the GI50 (SK-MEL-28) of the same molecule?
Its GI50 is > 340 µM (inactive).

What about the GI50 (SK-MEL-2) of the same molecule?
The GI50 was > 340 µM (inactive).

And the GI50 (SK-MEL-5)?
The GI50 was > 340 µM (inactive).

And the GI50 (SK-OV-3)?
Its GI50 is > 340 µM (inactive).

And the GI50 (SN12C)?
The GI50 was > 340 µM (inactive).

And the GI50 (SNB-19)?
Its GI50 is > 340 µM (inactive).

What about the GI50 (SR) of the same molecule?
The GI50 was > 340 µM (inactive).

And the GI50 (SW-620)?
Its GI50 is > 340 µM (inactive).

What about the GI50 (TK-10) of the same molecule?
Its GI50 is > 340 µM (inactive).

And the GI50 (U-251)?
The GI50 was > 340 µM (inactive).

What about the GI50 (UACC-257) of the same molecule?
The GI50 was > 340 µM (inactive).

And the GI50 (UACC-62)?
The GI50 was > 340 µM (inactive).

And the GI50 (XF498)?
The GI50 was 208 µM (inactive).
